Measured values taken from patent US20110039873A1, “SUBSTITUTED PYRAZOLO[1,5-a] PYRIDINE COMPOUNDS HAVING MULTI-TARGET ACTIVITY” (priority 2009, published 2011).
Read-outs that look alike come from different tables or passages of the source.

How the values were obtained:
JNK kinase = experiment: Amyloid beta-induced phosphorylation of JNK kinase (FIG. 2); assay type: cell-based; settings: neuronal cells stimulated with Amyloid Beta, ELISA
Protocol: (§1) In 96-well plates either human SH-SY5Y neuroblastoma cells at 2.5×10^4 cells/well or E18 rat neuronal cells at 1.5×10^4 cells/well were seeded. To each well the following was added, Amyloid Beta peptide 1-25 (source) at a concentration of 30 uM, retinoic acid (10 uM) and test compounds (0-30 uM) and incubated for 3 hours. Supernatant was discarded and cells were fixed with 4% paraformaldehyde (100 ul/well) for 20 minutes. FACE cell based ELISA assay (Active Motif) was performed specific for quantifying phosphorlyated c-Jun (serine-73).
Neuronal cells were stimulated with Amyloid Beta, the Alzheimer's related peptide, resulting in phosphorylation of JNK kinase as measured by ELISA.

[1] = target: T1, recombinant human phosphodiesterase 10A1 enzyme (Homo sapiens, UniProt Q9Y233); experiment: PDE10 inhibition assay (PDELight); assay type: biochemical; settings: 1 uM cAMP; read-out: PDE 10 Inhibition (IC50 in μM)
T1 construct: purchased BPS Biosciences; host or cells: Baculovirus infected Sf9 cells
T1 sequence (Q9Y233 1-779 isoform Q9Y233-1): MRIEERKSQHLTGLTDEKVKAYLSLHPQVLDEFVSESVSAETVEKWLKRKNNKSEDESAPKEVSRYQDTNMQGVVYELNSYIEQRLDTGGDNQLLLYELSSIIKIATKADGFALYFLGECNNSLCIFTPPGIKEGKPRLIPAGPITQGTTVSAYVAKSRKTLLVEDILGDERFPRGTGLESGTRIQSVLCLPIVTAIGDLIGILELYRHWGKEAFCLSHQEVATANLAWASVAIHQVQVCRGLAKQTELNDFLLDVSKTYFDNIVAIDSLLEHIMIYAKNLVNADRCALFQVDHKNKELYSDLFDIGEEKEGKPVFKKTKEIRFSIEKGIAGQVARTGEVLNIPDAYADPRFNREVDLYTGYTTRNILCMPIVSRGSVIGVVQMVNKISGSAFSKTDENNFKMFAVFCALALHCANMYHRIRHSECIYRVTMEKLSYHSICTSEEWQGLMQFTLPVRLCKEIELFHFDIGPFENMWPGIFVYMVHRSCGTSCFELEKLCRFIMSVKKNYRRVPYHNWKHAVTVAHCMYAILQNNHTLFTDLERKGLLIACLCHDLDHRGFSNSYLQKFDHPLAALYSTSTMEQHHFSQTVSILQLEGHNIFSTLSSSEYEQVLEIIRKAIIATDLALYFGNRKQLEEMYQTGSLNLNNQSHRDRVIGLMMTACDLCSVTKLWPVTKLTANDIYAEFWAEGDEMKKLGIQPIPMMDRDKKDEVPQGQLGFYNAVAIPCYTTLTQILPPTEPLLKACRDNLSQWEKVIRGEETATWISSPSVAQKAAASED

[2] = target: T2, recombinant full length human JNK3 enzyme (Homo sapiens, UniProt P53779); experiment: JNK 3 inhibition assay (ATP depletion, luciferase); assay type: biochemical
T2 construct: recombinant full length human JNK2 or JNK3 enzyme; purchased Upstate; host or cells: Sf21 cells
T2 sequence (P53779 whole entry): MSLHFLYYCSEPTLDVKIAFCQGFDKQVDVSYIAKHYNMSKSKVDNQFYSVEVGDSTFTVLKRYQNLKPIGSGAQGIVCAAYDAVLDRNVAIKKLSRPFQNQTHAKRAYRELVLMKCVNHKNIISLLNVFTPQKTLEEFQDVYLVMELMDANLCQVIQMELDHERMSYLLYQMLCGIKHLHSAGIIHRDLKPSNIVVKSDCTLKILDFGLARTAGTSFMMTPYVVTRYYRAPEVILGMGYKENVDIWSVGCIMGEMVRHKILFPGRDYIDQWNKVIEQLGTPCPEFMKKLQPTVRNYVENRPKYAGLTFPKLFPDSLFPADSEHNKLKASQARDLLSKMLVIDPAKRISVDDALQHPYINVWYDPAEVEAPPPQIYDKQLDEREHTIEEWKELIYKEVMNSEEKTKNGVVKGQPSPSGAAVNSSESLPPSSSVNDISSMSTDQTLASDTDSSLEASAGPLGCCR
Protocol: In a 96-well plate, recombinant full length human JNK2 or JNK3 enzyme (40 ng) expressed in Sf21 cells (Upstate) was incubated with the substrate ATF2 (3 uM) for 1 hour in the presence of 10 uM ATP. […] The ATP levels were quantified using luciferase with luminescence read on a Victor Light 1420 luminometer. IC50 calculations were plotted using a nonlinear regression curve fit.

[3] = tested on: Mouse BV-2 microglial cells; experiment: BV-2 glial cell assay (TNF-α and MCP-1 by Luminex); assay type: cell-based; settings: for EC50: Mus musculus, BV-2, LPS and IFN-γ activated, 20 hours
Protocol: Mouse BV-2 microglial cells were seeded on 96-well plates at a concentration of 3×10^4 cells/well. Cells were activated with 100 ng/mL LPS and IFN-γ (100 ng/mL) in the presence or absence of test compounds (0-30 uM). Following incubation for 20 hours, cells were spun down and supernatant collected. The supernatant was analyzed via Luminex for the presence of TNF-α and MCP-1.

[4] = tested on: phosphorylated c-Jun (serine-73); experiment: Phosphorylated c-JUN (A-beta), SH-SY5Y; assay type: cell-based; settings: Homo sapiens, Amyloid Beta peptide 30 uM, 3 hours, read-out: p-cJun Abeta SH-SY5Y (EC50 in μM)
Protocol: as §1, with “To each well the following was added, Amyloid Beta peptide 1-25 (source) at a concentration of 30 uM, retinoic acid (10 uM) and test compounds (0-30 uM) and incubated for 3 hours.” left out

[5] = tested on: at least one of JNK 3 or JNK 2 and at least one of PDE 10 or PDE 4; experiment: Dual inhibition (phosphodiesterase and JNK); assay type: biochemical, human; settings: IC50 JNK 3 or JNK 2 less than about 5.00 μM and PDE 10 or PDE 4 less than about 20.0 or 30.0 μM
Procedure, shortened: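 JNK2/JNK3: full-length human enzyme with 3 uM ATF2 and 10 uM ATP for 1 h, ATP depletion by luciferase luminescence. PDE4B catalytic domain with 5 uM cAMP, or PDE10A1 with 1 uM cAMP, 1 h; AMP converted to ATP for luminescence. Compounds 0–30 uM; IC50 by nonlinear regression.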

[6] = target: T3, catalytic domain of phosphodiesterase 4B enzyme cloned from human brain (Homo sapiens, UniProt Q07343); experiment: PDE4 inhibition assay (PDELight); assay type: biochemical; settings: 5 uM cAMP; read-out: PDE 4 Inhibition (IC50 in μM)
T3 construct: the catalytic domain of phosphodiesterase 4B enzyme; purchased Scottish Biomedical
T3 sequence (Q07343 330-659 limits assumed): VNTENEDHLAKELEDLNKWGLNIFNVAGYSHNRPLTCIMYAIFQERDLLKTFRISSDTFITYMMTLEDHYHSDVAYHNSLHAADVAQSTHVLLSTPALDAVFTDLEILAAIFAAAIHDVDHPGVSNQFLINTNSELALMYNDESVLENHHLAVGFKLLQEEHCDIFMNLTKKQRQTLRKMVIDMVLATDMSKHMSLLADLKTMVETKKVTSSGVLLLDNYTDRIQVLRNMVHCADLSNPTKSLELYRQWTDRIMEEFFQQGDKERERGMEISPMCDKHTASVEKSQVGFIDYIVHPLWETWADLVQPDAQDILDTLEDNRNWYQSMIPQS
Procedure, shortened: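 Human PDE4B catalytic domain (40 mU/well) incubated with 5 uM cAMP. AMP formed was converted to ATP and measured by luciferase luminescence (PDELight). IC50 derived by nonlinear regression curve fit.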

[7] = Oral pharmacokinetic evaluation; assay type: in vivo, rat; settings: male, rat, Sprague-Dawley rats, 15 mg/kg oral gavage, plasma
Protocol: Three male Sprague-Dawley rats were dosed orally via gavage with 15 mg/kg of test compound. Serial blood samples were collected from the jugular vein at 5, 15, and 30 min, 1, 3, and 6 hours post dosing. Samples were processed for plasma via centrifugation and plasma samples were stored frozen prior to analysis via a sensitive and specific HPLC/MS/MS method. PK parameters were calculated using WinNonLin (Pharsight).

[8] = tested on: phosphorylated c-Jun (serine-73); experiment: Phosphorylated c-JUN (6-OHDA), SH-SY5Y; assay type: cell-based; settings: Homo sapiens, 50 uM 6-hydroxydopamine, 1.5 hours, read-out: p-cJun 6-OHDA SH-SY5Y (EC50 in μM)
Protocol: Human SH-SY5Y neuroblastoma cells were cultured in 96-well plates with 2.5×10^4 cells/well and incubated for 48 hours. 6-hydroxydopamine was added at a concentration of 50 uM in the presence or absence of test compounds (0-30 uM) and incubated for 1.5 hours. Supernatant was discarded and cells were fixed with 4% paraformaldehyde (100 ul/well) for 20 minutes. FACE cell based ELISA assay (Active Motif) was performed specific for quantifying phosphorlyated c-Jun (serine-73).

- IC50 [1]: 32 µM
- IC50 ([2]; 10 uM ATP, ATF2 substrate): 0.4 µM
- JNK-3 inhibition (in words) ([2]; see Table 2): particularly effective
- EC50 ([3]; read-out: MCP-1 BV-2 (EC50 in μM)): 0.9 µM
- EC50 ([3]; read-out: TNF-a BV-2 (EC50 in μM)): 0.3 µM
- EC50 [4]: 8.3 µM
- dual inhibition (phosphodiesterase and JNK) [5]: effective dual inhibitors
- IC50 [6]: 15.5 µM
- AUC(0-t) ([7]; read-out: Oral PK AUClast): < 10 ng·h/mL
- Cmax ([7]; read-out: Oral PK Cmax): < 5 ng/mL
- EC50 [8]: 0.7 µM
Compound: Cc1cccc2c(-c3ccnc(NC4CCCC4)n3)cnn12 [AV1184, N-cyclopentyl-4-(7-methylpyrazolo[1,5-a]pyridin-3-yl)pyrimidin-2-amine]
- inhibition of amyloid beta-induced phosphorylation of JNK kinase (JNK kinase): capable of inhibiting phosphorylation of JNK kinase in a dose-dependent manner
- inhibiting glial cell activation (TNF-α and/or MCP-1) ([3]; Table 3): Particularly effective
